Converted amounts (≈) assume the structure as drawn.
Assays:
Assay type in all cases: physicochemical
Details in all cases: organic solvent or mixture
[1] = Solubility of 7 in a selection of solvents
Excerpt: Isolation of 7 from the MSA aqueous layer was completed by addition of DCM followed by basification with aqueous NaOH to extract the 7 free base into the DCM layer. […] Isolation from the DCM solution was developed by concentrating the volume of the DCM to induce crystallization followed by the addition of heptane as an anti-solvent. […] Possible solvents candidates which could be used to efficiently extract 7 were limited to DCM due to the poor solubility of 7 in a variety of common solvents (Table 19).

[2] = Solubility of 6 in extraction solvents
Experimental: While this initial trial was very promising, in subsequent experiments on larger scale, complications were encountered. One issue was that during the neutralization of acetic acid, emulsions were often obtained. Multiple solvent systems were investigated and the solubility of 6 was evaluated to estimate the efficiency of the extraction (Table 17).

[3] = Solubility of 3 in HOAc, 2-MeTHF and THF
Experimental: Although the reaction was high yielding, the amount of solvent required to perform the reaction limited the throughput due to the poor solubility of 3 in EtOAc. It was therefore desirable to find an alternate solvent for this reaction to prevent the risk of poor conversion while increasing the volume efficiency. To address this issue, the solubility of 3 was evaluated in HOAc and THF in addition to 2-MeTHF. […] In one embodiment, THF is used for the hydrogenation reaction. In another embodiment, 2-MeTHF is used for the hydrogenation reaction. […] In one embodiment, when the hydrogenation reaction was run at 40 psi hydrogen pressure at 40° C., the reaction was typically complete in 2 to 3 hours. The final variable which was investigated was catalyst loading. The initial 10 wt % loading was reduced to 5 wt % without any decrease in reaction time, yield or purity.

[4] = Solubility of 3 in 2-MeTHF/heptane mixtures
Experimental: A series of experiments were performed to test the solubility of 3 in a mixture of 2-MeTHF and heptane.

Q: For `Nc1ncccc1-c1nc2ccc(-c3ccccc3)nc2n1-c1ccc(C2(N)CCC2)cc1` [Compound 7, 3-(3-(4-(1-aminocyclobutyl)phenyl)-5-phenyl-3H-imidazo[4,5-b]pyridin-2-yl)pyridin-2-amine], which solubility ([1]; Solvent 2-MeTHF) is on record?
A: 4800 µg/mL (≈ 11.1 mM)

Q: And the solubility ([1]; Solvent DCM)?
A: 73000 µg/mL (≈ 169 mM)

Q: And the solubility ([1]; Solvent EtOAc)?
A: 5600 µg/mL (≈ 12.9 mM)

Q: What about the solubility ([1]; Solvent IPAc) of the same compound?
A: 2900 µg/mL (≈ 6.7 mM)

Q: And the solubility ([1]; Solvent MTBE)?
A: 760 µg/mL (≈ 1.76 mM)

Q: What about the solubility ([1]; Solvent THF) of the same compound?
A: 24000 µg/mL (≈ 55.5 mM)

Q: What about the solubility ([1]; Solvent Toluene) of the same compound?
A: 9300 µg/mL (≈ 21.5 mM)

Q: Which solubility ([2]; Solvent 2-MeTHF) does the source give for `CC(C)(C)OC(=O)NC1(c2ccc(-n3c(-c4cccnc4N)nc4ccc(-c5ccccc5)nc43)cc2)CCC1` [Compound 6, tert-butyl (1-(4-(2-(2-aminopyridin-3-yl)-5-phenyl-3H-imidazo[4,5-b]pyridin-3-yl)phenyl)cyclobutyl)carbamate] here?
A: 25000 µg/mL (≈ 46.9 mM)

Q: What about the solubility ([2]; Solvent DCM) of the same compound?
A: 126000 µg/mL (≈ 237 mM)

Q: And the solubility ([2]; Solvent EtOAc)?
A: 6600 µg/mL (≈ 12.4 mM)

Q: And the solubility ([2]; Solvent IPAc)?
A: 2900 µg/mL (≈ 5.44 mM)

Q: And the solubility ([2]; Solvent MTBE)?
A: 690 µg/mL (≈ 1.3 mM)

Q: And the solubility ([2]; Solvent THF)?
A: 110000 µg/mL (≈ 207 mM)

Q: And the solubility ([2]; Solvent Toluene)?
A: 4500 µg/mL (≈ 8.45 mM)

Q: Which results are given for `CC(C)(C)OC(=O)NC1(c2ccc(Nc3nc(-c4ccccc4)ccc3[N+](=O)[O-])cc2)CCC1` [Compound 3, tert-butyl (1-(4-((3-nitro-6-phenylpyridin-2-yl)amino)phenyl)cyclobutyl)carbamate]?
A: solubility ([3]; in 2-MeTHF): 100000 µg/mL (≈ 217 mM); solubility ([3]; in HOAc): 24800 µg/mL (≈ 53.9 mM); solubility ([3]; in THF): 155000 µg/mL (≈ 337 mM); solubility ([4]; 2-MeTHF/heptane 1/0 (v/v), 2-MeTHF/heptane (v/v) 1/0, 25° C.): 100000 µg/mL (≈ 217 mM); solubility ([4]; 2-MeTHF/heptane 2/8 (v/v), 2-MeTHF/heptane (v/v) 2/8, 25° C.): 300 µg/mL (≈ 0.651 mM); solubility ([4]; 2-MeTHF/heptane 3/7 (v/v), 2-MeTHF/heptane (v/v) 3/7, 25° C.): 1200 µg/mL (≈ 2.61 mM); solubility ([4]; 2-MeTHF/heptane 4/6 (v/v), 2-MeTHF/heptane (v/v) 4/6, 25° C.): 3800 µg/mL (≈ 8.25 mM); solubility ([4]; 2-MeTHF/heptane 5/5 (v/v), 2-MeTHF/heptane (v/v) 5/5, 25° C.): 4500 µg/mL (≈ 9.77 mM); solubility ([4]; 2-MeTHF/heptane 6/4 (v/v), 2-MeTHF/heptane (v/v) 6/4, 25° C.): 8000 µg/mL (≈ 17.4 mM); solubility ([4]; 2-MeTHF/heptane 7/3 (v/v), 2-MeTHF/heptane (v/v) 7/3, 25° C.): 13000 µg/mL (≈ 28.2 mM); solubility ([4]; 2-MeTHF/heptane 8/2 (v/v), 2-MeTHF/heptane (v/v) 8/2, 25° C.): 23000 µg/mL (≈ 49.9 mM); solubility ([4]; 2-MeTHF/heptane 9/1 (v/v), 2-MeTHF/heptane (v/v) 9/1, 25° C.): 32000 µg/mL (≈ 69.5 mM)
